The conditions of data set [1]: cited from earlier work.
A short description of data set [2]: Fenofibric acid polymorph slurry study (form by XRPD or Raman). The format is physicochemical. Conditions: for relative thermodynamic stability of the enantiotropically related forms: Form A versus Form B, by temperature. The procedure: Approximately 30-45 mg in combination of Form B and Form A are weighed to an 8-mL vial outfitted with a stir bar. Solvent (water, toluene, and 1:1 water/IPA, DCM or MeCN) in the amount of 1 mL is added. The samples are sealed with a Teflon cap and parafilm and then placed on a magnetic stirrer at room temperature or 45° C. An aliquot is then sampled after 7 days and 21 days for determination of form by XRPD or Raman (Table 7).

A short description of another data set: Solubility in water. It is filed as physicochemical. Conditions: noted in lyophilization example.
Data set [3] can be described thus: Grinding study of Form B in a ball mill (XRPD). The format is physicochemical. Conditions: ground for 30 seconds using a ball mill. The procedure:
Approximately 50 mg of Form B is ground for 30 seconds using a ball mill and the resulting material is analyzed by XRPD.

The structures appear in SMILES notation.

Turning to `CC(C)OC(=O)C(C)(C)Oc1ccc(C(=O)c2ccc(Cl)cc2)cc1` [Fenofibrate, 2-[4-(4-chlorobenzoyl)phenoxy]-2-methyl-propanoic acid, 1-methylethyl ester], in data set [1] (treatment with fenofibrate), the “effect on high-density lipoprotein (HDL) and apoproteins apoAI and apoAII” value is given as “results in increases”.
For `CC(C)(Oc1ccc(C(=O)c2ccc(Cl)cc2)cc1)C(=O)O` [Fenofibric acid, 2-[4-(4-chlorobenzoyl)phenoxy]-2-methyl-propanoic acid], in data set [1] (treated patients), the “effect on total cholesterol, LDL cholesterol, apolipoprotein B, total triglycerides and triglyceride rich lipoprotein (VLDL)” value was “produces reductions”.
Regarding `CC(C)(Oc1ccc(C(=O)c2ccc(Cl)cc2)cc1)C(=O)O` [Form A + B, 2-[4-(4-chlorobenzoyl)phenoxy]-2-methyl-propanoic acid], the “Form, 21 Days (XRPD/Raman)” value in data set [2] (slurry in Toluene 1 mL, 45 °C) is recorded as “A + B”. Besides, the “Form, 7 Days (XRPD/Raman)” value in data set [2] (slurry in Water 1 mL, RT) is on record as “A + B”.
For the compound `CC(C)(Oc1ccc(C(=O)c2ccc(Cl)cc2)cc1)C(=O)O` [Form A, 2-[4-(4-chlorobenzoyl)phenoxy]-2-methyl-propanoic acid], the “relative thermodynamic stability of the enantiotropically related forms” value in data set [2] was “more stable at elevated temperatures (e.g., above about 45° C.)”. Moreover, in data set [2] (slurry in DCM 1 mL, 45 °C), the “Form, 7 Days (XRPD/Raman)” value is reported as “A + B” and the “Form, 21 Days (XRPD/Raman)” value was “A + B”. In addition, the “Form, 21 Days (XRPD/Raman)” value in data set [2] (slurry in Water 1 mL, RT) was “Diffuse”. In addition, the solubility in water result in the data set “Solubility in water” is “limited solubility”.
`CC(C)(Oc1ccc(C(=O)c2ccc(Cl)cc2)cc1)C(=O)O` [Form B, 2-[4-(4-chlorobenzoyl)phenoxy]-2-methyl-propanoic acid]: the “relative thermodynamic stability of the enantiotropically related forms” value in data set [2] is on record as “more thermodynamically stable at lower temperatures (e.g., room temperature)”. Further, in data set [2] (slurry in DCM 1 mL, 45 °C), the “Form, 7 Days (XRPD/Raman)” value is recorded as “A + B” and the “Form, 21 Days (XRPD/Raman)” value is given as “A + B”. Besides, the “form observed after grinding (XRPD)” value in data set [3] was “Form A is observed”.
